Measurements from publication PMC3454376, “Salidroside Improves Behavioral and Histological Outcomes and Reduces Apoptosis via PI3K/Akt Signaling after Experimental Traumatic Brain Injury” (PLoS ONE, 2012).

Test system: mice subjected to controlled cortical impact injury
Test: Residual cerebral tissue ratio, cresyl violet staining
Format: in vivo
Details: day 28; for preservation of brain tissue (ipsilateral/contralateral hemisphere volume): vehicle 76.4±3.3%, P<0.05
Procedure: All animal procedures were approved by the Animal Research Committee at Cheng Hsin General Hospital (Animal permit number CHIACUC 101–08), and all procedures complied with the Guide for the Care and Use of Laboratory Animals published by the US National Institutes of Health (NIH Publication No. 85–23, revised 1996). Animals were housed under a 12-h light/dark cycle and at constant temperature (21–25°C) and humidity (45–50%). They were allowed free access to pellet chow and water. TBI in mice was induced by a CCI injury model as previously described. Briefly, 8-week-old male C57BL/6 mice (weighing 22–25 g) were anesthetized through the use of intraperitoneal injection of sodium pentobarbital (65 mg/kg; Rhone Merieux, Harlow, UK) and placed in a stereotaxic frame. A 5 mm craniotomy was performed over the right parietal cortex, centered on the coronal suture and 0.1 mm lateral to the sagittal suture, and injury to dura was avoided. Injury was induced using a pneumatic piston with a rounded metal tip (2.5 mm diameter) that was angled 22.5° to the vertical so that the tip was perpendicular with the brain surface at the center of the craniotomy. The impact, with a velocity of […] and a deformation depth of 2 mm below the dura, was applied. The bone flap was immediately replaced and sealed, and the scalp was sutured. Body temperature was monitored throughout the surgery by a rectal probe; temperature was maintained at 37.0±0.5°C using a heated pad. Mice were placed in a heated cage to maintain body temperature, while recovering from anesthesia. Sham-operated mice underwent the same procedure as injured mice, but without CCI.
Mice were anesthetized and positioned in a stereotaxic frame. LY294002 (200 nM in 0.5 µL of saline) or equal amount of physiological saline was intracerebroventricularly (icv) injected at 30 min before CCI as previously described. A 1 mm cranial burr hole was drilled into the skull. A 30-gauge needle on a Hamilton syringe was implanted into the lateral ventricle using stereotactic coordinates: 1.5 mm posterior to bregma and 1.0 mm right lateral to the midline, 2 mm in depth. LY294002 or saline was infused into the brain at a rate of 0.05 µL/min over 10 min with an infusion pump (KDS 310, KD Scientific Inc., Holliston, MA, USA), and the needle was left in place for an additional 20 min to prevent reflux. After the needle was removed, CCI procedure was conducted immediately. Sham-operated mice were infused icv with saline, but were not subjected to CCI.
Three sets of experiments were performed. […] To determine the optimal dose of salidroside, a pilot study was performed using 2 different doses (20 and 50 mg/kg) administered 10 min after injury, and neurological deficits and tissue damage were evaluated as the main outcomes. […]

Question: What does the source list for `OC[C@H]1O[C@@H](OCCc2ccc(O)cc2)[C@H](O)[C@@H](O)[C@@H]1O` [SALD, salidroside]?
Answer: preservation of brain tissue (ipsilateral/contralateral hemisphere volume) (20 mg/kg ip 10 min after CCI): 81.9±2.6%; preservation of brain tissue (ipsilateral/contralateral hemisphere volume) (50 mg/kg ip 10 min after CCI): 80.7±2.8%; residual cerebral tissue ratio (icv saline 30 min before CCI, then SALD 20 mg/kg ip (S20S group)): 80.5±5.8%
